These results are taken from US11806555B2, “Methods for treating hair loss disorders” (THE TRUSTEES OF COLUMBIA UNIVERSITY IN THE CITY OF NEW YORK, priority 2010, dated 2023).

Data set [1] has as its system telogen hair follicles of normal C57BL/6 mice. Description: induction of anagen by topical treatment of normal mice in telogen. In kind it is in vivo, mouse. The conditions noted are these: for induction of anagen: topical, mice in telogen; for induction of anagen / proliferation in the telogen hair follicle (Ki67) / keratinocyte matrix cells: vs vehicle. The protocol:
7-8 weeks old animals in telogen were treated with controls or JAK STAT inhibitors.
Right half of each mouse was administered topical drug, left half of each mouse was treated with DMSO alone.
To test whether inhibition of JAK-STAT signaling could therefore trigger the telogen-to-anagen transition, a topical JAK3 inhibitor was applied to test whether anagen could be induced in normal mouse skin in telogen.

The subject of the next data set is human embryonic scalp. The experiment in a line: drug treatment of human fetal scalp in vitro, hair follicle morphogenesis. In kind it is cell-based. On the set-up: dose or concentration left out as unconfirmed. To be noted: human embryonic scalp at 20 weeks, vs DMSO.
In data set [2] the test system is IL-15 triggered pSTAT3 activation. Description: IL-15-induced Stat3 activation in T cells. In kind it is cell-based. The conditions noted are these: T cells / CTL effectors.
The test system of the next data set is dermal sheath cells. Description: IL-15-induced LAK cell cytotoxicity against dermal sheath cells. In kind it is cell-based, mouse. Here is the method:
In vitro cytotoxicity assays. Determination of specific killing of target cells was performed using CFSE-labeled DS cells at targets mixed with different ratios of effector cells incubated for 5 hours at 37° C. 5% CO2 with or without neutralizing rat anti-mouse NKG2D antibody (20 ug/ml) (Biolegend, CX5). Specific lysis of DS cells was determined flow cytometrically by measuring cell death of CFSE+DS cells using Annexin V/7-AAD.

For data set [3] the following is noted: C3H/HeJ, mouse, in vivo, 10 mg/kg/day.
Data set [4] relates to alopecia areata in grafted C3H/HeJ mice. The conditions noted are these: for CD8+NKG2D+ T cells in skin and cutaneous lymph nodes: flow cytometry; for ALADIN score / transcriptional signature / GEDI (CTL and IFN signatures): skin; for development / onset of alopecia areata: systemic treatment from time of grafting. Background: Flow cytometry measures light scatter and fluorescence of single cells or particles in a stream.
Source text: Alopecia areata is graded based on severity, location of inflammatory cells, types and relative numbers of inflammatory cells (granulocytes, mast cells, lymphocytes), follicular dystrophy, etc.
Protocol #1: In the prevention setting, recipient mice will be treated beginning the first week after grafting.
Transfer of Alopecia Areata using grafted C3H/HeJ skin. Normal-haired C3H/HeJ mice were grafted at 8 weeks of age (during the second telogen) with skin from a C3H/HeJ mouse that developed AA spontaneously, as described previously^7. In brief, mice spontaneously affected with AA were euthanized, full thickness skin grafts of approximately 2 cm in diameter were removed and grafted to normal-haired C3H/HeJ mice.
Flow cytometric analysis of skin and cutaneous lymph nodes. To make a single cell suspension of mouse skin, fat was removed from the overlying skin in cold PBS and then incubated in collagenase type I (2 mg/ml in PBS) at 32° C. for 75 minutes. After digestion the skin was minced in RPMI/10% fetal bovine serum, filtered through a 70 mM cell strainer, and centrifuged at 1100 g for 5 minutes. The pellet was resuspended in RPMI/10% fetal bovine serum, filtered through a 40 mM cell strainer and spun at 400 g for 5 mins. The pellet was resuspended in FACs buffer (PBS/5% BSA), DAPI to gate on live cells and staining antibodies (listed in Supplemental Data). Cutaneous lymph nodes were pooled minced in RPMI, filtered through a 40 mM cell strainer, centrifuged at 400 g for 5 minutes stained and analysed on a BD LSR II flow cytometer.
Prevention and Treatment Studies. For prevention studies, mice were treatment beginning the day of grafting (n=5-10 mice per group).
(§1) ALADIN scores. The IFN and CTL signatures were used to develop a bivariate score statistic. Individual signature IFN and CTL scores were determined following procedures used in human SLE^,S9,S10. The sets of genes selected to comprise our IFN and CTL signatures were CD8A, GZMB, and ICOS for the CTL signature, and CXCL9, CXCL10, CXCL11, STAT1, and MX1 for the IFN signature. The scores for the prevention mice were calculated in relation to the sham mice; whereas, the scores for the topical treatment experiments were calculated relative to all the samples at week zero.

Data set [5] concerns C3H/HeJ mice with long-standing alopecia areata. To be noted: for hair regrowth / reversal of alopecia areata: systemic (pump), established AA; for CD8+NKG2D+ T cells in skin and cutaneous lymph nodes: flow cytometry.
Procedure: (§2) To make a single cell suspension of mouse skin, fat was removed from the overlying skin in cold PBS and then incubated in collagenase type I (2 mg/ml in PBS) at 32° C. for 75 minutes. After digestion the skin was minced in RPMI/10% fetal bovine serum, filtered through a 70 mM cell strainer, and centrifuged at 1100 g for 5 minutes. The pellet was resuspended in RPMI/10% fetal bovine serum, filtered through a 40 mM cell strainer and spun at 400 g for 5 mins. The pellet was resuspended in FACs buffer (PBS/5% BSA), DAPI to gate on live cells and staining antibodies (listed in Supplemental Data). Cutaneous lymph nodes were pooled minced in RPMI, filtered through a 40 mM cell strainer, centrifuged at 400 g for 5 minutes stained and analysed on a BD LSR II flow cytometer.
In data set [6] the test system is C3H/HeJ mice with long-standing AA. To be noted: for CD8+NKG2D+ T cells in treated skin: flow cytometry.
Procedure: as §2, §1
For the next data set, the system named is IL-15 signaling. To be noted: human whole blood assays; cited from earlier work.
The conditions of data set [7]: rodent; cited from earlier work.
The conditions of data set [8]: all dose groups; cited from earlier work.
The test system of data set [9] is Th1 and Th17 transcript markers and keratin 16. The conditions noted are these: cited from earlier work.
Data set [10] concerns epidermal thickening and dermal inflammation. To be noted: in vivo; cited from earlier work.
For data set [11] the following is noted: Active (n = 149); cited from earlier work.
The mark [12] stands for this setting: topical vs systemic administration.

Entries after “also recorded” stand apart in the source; their conditions may differ. Like-named read-outs stand apart in the source and are kept apart here. Bounds are passed on as bounds.

Source text for human embryonic scalp: Skin was harvested and sectioned and assessed for hair follicle morphology.

`CC1CCN(C(=O)CC#N)CC1N(C)c1ncnc2[nH]ccc12` (stereo not drawn) [tofacitinib]: the durability of effect result in data set [1] (1% daily for 3 weeks) is on record as “more than 1 month”. In data set [1] (mouse, in vivo), the “number of hair follicles vs vehicle treated” value was “greater” and the “thickness of hair follicles vs vehicle treated” value was “greater”. In [1], the induction of anagen entry is recorded as “marked induction of anagen” and the “proliferation in the telogen hair follicle (Ki67) / keratinocyte matrix cells” value is given as “marked proliferation”. Also, the “hair follicle morphology, stage of first anagen of morphogenesis” value in the data set on human embryonic scalp is given as “more advanced”. The “IL-15-induced Stat3 (pSTAT3) activation” value in [2] is “block; also recorded: inhibits”. The “IL-15-induced LAK cell cytotoxic function (dermal sheath cell cytotoxicity)” value in the data set with dermal sheath cells was “inhibit”. In data set [3], this molecule displayed a serum levels of 30 to 40 nM. In addition, in data set [4] (10 mg/kg/day Alzet pump, 5 mice), the “development of cutaneous lymphadenopathy” value was “None”. Moreover, in data set [4], the “CD8+NKG2D+ T cells in skin and cutaneous lymph nodes” value was “eliminated; also recorded: prevented”; the “ALADIN score / transcriptional signature” value is listed as “prevented the emergence”; the “GEDI (CTL and IFN signatures)” value is “prevented the emergence”; the “development / onset of alopecia areata” value is “prevents and None and prevented and inhibited”. For the same molecule, the “IFN-response chemokines and markers of CD8 cytotoxic effectors in skin” value in [4] (microarray, 13 weeks of treatment vs PBS) is “elimination”. In addition, in data set [4] (mouse, in vivo), the “HF NKG2DL expression (e.g. H60 by immunostain)” value is on record as “reduced although not completely eliminated”; the “durability of disease prevention after treatment withdrawal” value came out at 12 weeks; the “histological signs of inflammation in skin” value is on record as “no histological signs of inflammation”; the “inflammatory biomarkers in the skin, including MHC molecules and IFN signature” value is “down-regulated”. The inflammatory infiltrate entry in [4] (photomicrographs, FIG. 53) was “normalizes”. Further, the “development / onset of alopecia areata” value in data set [4] (listed as CP690550) is “prevention of AA”. Also, the “hair regrowth / reversal of alopecia areata” value (shortened to “hair regrowth / reversal”) in data set [5] is “complete”. The “disease recurrence after treatment withdrawal” value in [6] (additional 8 weeks after withdrawal) is given as “no evidence of disease recurrence”. The “untreated areas on the abdomen” value in [6] (drug applied to back skin only) is listed as “remained alopecic”. The “CD8+NKG2D+ T cells in treated skin” value in [6] is “disappearance”. Moreover, in [6] (mouse, in vivo), the ALADIN transcriptional signature result is reported as “normalization”, the “durability of effects after cessation of treatment” value is 2-3 months and the “histological markers of disease” value is recorded as “reversal”. Moreover, the “time to full coat of hair” value in data set [6] (topical 0.5% daily) is not above 7 weeks. For the same molecule, in data set [6] (topical therapy), the “time to complete hair regrowth” value is reported as not above 12 weeks. Also, the “reversal of established / long-standing AA” value in [6] (topical, daily, 0.5%) was “highly effective; also recorded: reversal”. Also, the IL-15 signaling entry in the data set on IL-15 signaling is given as “inhibit”.

For the molecule `CNC1CCC(N(Cc2cccc(-c3ccncc3)c2)C(=O)c2sc3ccccc3c2Cl)CC1` (stereo not drawn) [SAG], the “time to induction of anagen” value in data set [1] (post treatment) was 4 to 7 days. The “proliferation in the telogen hair follicle (Ki67) / keratinocyte matrix cells” value in [1] was “marked proliferation”.

Take tofacitinib: in data set [1] (mouse, in vivo), the “effect on anagen induction compared with SAG” value is on record as “comparable”; the “time to induction and growth of robust pigmented anagen hairs” value is given as 1-2 weeks. Moreover, the induction of anagen result in data set [1] is “striking anagen induction”. Besides, in [4] (listed as JAK3 PTKi), the “CD8+NKG2D+ T cells in skin and cutaneous lymph nodes” value is “eliminating expansion”; the “development / onset of alopecia areata” value is recorded as “effectively prevented”. In addition, in [4] (listed as JAK3i), the “CD8+NKG2D+ T cells in skin and cutaneous lymph nodes” value was “significantly decreased”. Moreover, in data set [4] (listed as JAK3 inhibitor), the “CD8+NKG2D+ T cells in skin and cutaneous lymph nodes” value is reported as “completely eliminated”; the “development / onset of alopecia areata” value is listed as “do not develop alopecia”. For the same molecule, the “expression of CD4, CD8, MHC class I and II in skin” value in data set [4] (immunohistochemical staining) is listed as “significantly decreased”. Also, the “inflammatory biomarkers in the skin, including MHC molecules and IFN signature” value in data set [4] (mouse, in vivo) is recorded as “ablating”. Besides, in [4] (osmotic pump), the “inflammatory profiles (skin microarray, T cell infiltrate stains, serum markers)” value is “decreased inflammatory profiles”. For the same molecule, the “mice that developed alopecia” value in data set [4] (osmotic pump, by six weeks following transplantation, PBS 4/4, vehicle pump 2/2) is listed as 0/5. Besides, in data set [4], the “ALADIN score / transcriptional signature” value is reported as “normalization”; the “GEDI (CTL and IFN signatures)” value is listed as “reduction”. Also, in data set [5] (listed as JAK3i), the “CD8+NKG2D+ T cells in skin and cutaneous lymph nodes” value was “eliminated”; the “hair regrowth / reversal” value is listed as “induced hair regrowth all over the body”. Also, in data set [5] (listed as JAK3 inhibitor), the “CD8+NKG2D+ T cells in skin and cutaneous lymph nodes” value is “elimination; also recorded: devoid”; the “hair regrowth / reversal” value was “exhibit hair regrowth”. Moreover, the “persistence of effect after cessation of treatment” value in [5] (mouse, in vivo) is listed as 2-3 months. In addition, the “CD8+NKG2D+ T cells in treated skin” value in data set [6] is “significantly decreased”. Moreover, in data set [6] (setting [12]), the “pigmentation of regrown hair coat” value was “darkly pigmented” and the “speed of hair regrowth” value is “very rapid”.

Consider `N#CCC(C1CCCC1)n1cc(-c2ncnc3[nH]ccc23)cn1` (stereo not drawn) [INCB018424], for which, in data set [7], the “half-life (t1/2)” value was 3 to 6 h. Moreover, the “Total Lesion Score, decrease over vehicle” value in data set [8] was not below 2 ×. In addition, in data set [9] (psoriasis subjects, topical), the clinical responses entry was “rapid clinical responses” and the “cutaneous Th1/Th17 cytokine responses” value is “normalization”. In addition, the “Th1 and Th17 transcript markers and keratin 16” value in [9] (topical treatment) was “decreased”. In data set [10], the “epidermal thickening and dermal inflammation” value is “markedly reduces”; the pathological skin thinning result is “No pathological skin thinning is observed”. Also, in [11], the “Adverse event: Abdominal pain, number” value is listed as 3; the “Adverse event: Abdominal pain, value in brackets” value is on record as “(2.0)”; the “Adverse event: Application site irritation, pruritus, number” value was 14; the “Adverse event: Application site irritation, pruritus, value in brackets” value was “(9.3)”. Besides, in [11], the “Adverse event: Back Pain, value in brackets” value was “(3.4)”; the “Adverse event: Headache, number” value is on record as 4; the “Adverse event: Headache, value in brackets” value was “(2.7)”; the “Adverse event: Influenza, number” value was 4. Moreover, in data set [11], the “Adverse event: Influenza, value in brackets” value was “(2.7)”; the “Adverse event: Nasopharyngitis, number” value is 10; the “Adverse event: Nasopharyngitis, value in brackets” value was “(6.7)”; the “Adverse event: Sinusitis, number” value is given as 6. Further, in [11], the “Adverse event: Sinusitis, value in brackets” value is listed as “(4.0)”; the “Adverse event: Upper respiratory tract infection, number” value is listed as 10; the “Adverse event: Upper respiratory tract infection, value in brackets” value was “(6.7)”.
